According to ChEMBL document CHEMBL1201862, “PubChem BioAssay data set” (2004):
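48-hour exposure; five concentrations; linearly interpolated endpoints. At the GI50, growth is halved.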 Active and inactive are the calls of the source. No stated cut-off is given here; in the data, active = GI50 up to about 1.1 µM and inactive = higher.

What was measured:
Experiment in all cases: NCI-60 cell line screen, 48 h
[1] = system: IGROV-1
[2] = system: SK-OV-3
[3] = system: CAKI-1
[4] = system: KM-20L2
[5] = system: OVCAR-3
[6] = system: HL-60
[7] = system: KM12
[8] = system: SK-MEL-2
[9] = system: EKVX
[10] = system: HCT-116
[11] = system: TK-10
[12] = system: SF-268
[13] = system: NCI-H522
[14] = system: UACC-62
[15] = system: SNB-75
[16] = system: PC-3
[17] = system: MDA-MB-231
[18] = system: T47D
[19] = system: MDA-MB-435
[20] = system: BT-549

Measured: GI50

CC1=NN(C(=O)c2ccc(Cl)cc2)C(=O)/C1=C/c1cccc(O)c1
inactive: [1] > 100 µM | [2] > 100 µM | [3] > 100 µM | [4] > 100 µM | [5] > 100 µM | [6] > 100 µM | [7] > 100 µM | [8] > 100 µM | [9] > 100 µM | [10] > 100 µM | [11] > 100 µM | [12] > 100 µM | [13] > 100 µM | [14] > 100 µM

NCC(=O)Nc1ccc(Cl)cc1C(=O)c1ccc[nH]1
inactive: [1] > 48.4 µM | [2] > 100 µM | [3] 78 µM | [15] 38.5 µM | [5] 40.9 µM | [6] 15.1 µM | [7] 34 µM | [16] 25.9 µM | [17] > 51.1 µM | [8] 61.1 µM | [9] > 100 µM | [10] 7.64 µM | [18] 54.1 µM | [19] 45.2 µM | [20] 70.3 µM | [11] > 94.6 µM | [12] 49 µM | [13] 11.5 µM | [14] > 68.5 µM

O=C(O)CCSCc1ccccc1
inactive: [1] > 100 µM | [2] > 100 µM | [3] > 100 µM | [15] > 100 µM | [5] > 100 µM | [6] > 100 µM | [7] > 100 µM | [16] > 100 µM | [17] > 100 µM | [8] > 100 µM | [9] > 100 µM | [10] > 100 µM | [18] > 100 µM | [19] > 100 µM | [20] > 100 µM | [11] > 100 µM | [12] > 100 µM | [13] > 100 µM | [14] > 100 µM

Cn1cc(NC(=O)c2cc(NC(=O)CCCCCCC(=O)Nc3cc(C(=O)Nc4cc(C(=O)NCCC(=N)N)n(C)c4)n(C)c3)cn2C)cc1C(=O)NCCC(=N)N
inactive: [1] 3.8 µM | [2] > 100 µM | [3] 11 µM | [15] 10.1 µM | [4] > 100 µM | [5] 24.5 µM | [6] 2.84 µM | [7] 2.92 µM | [9] 16.7 µM | [10] 8.53 µM | [11] 11.6 µM | [12] 18.7 µM | [14] 7.6 µM

COc1ccc(-c2cc(C(=O)Nc3ccc(C)c(C)c3)nc(NC#N)n2)cc1
inactive: [1] > 100 µM | [2] > 100 µM | [3] > 100 µM | [15] > 100 µM | [4] > 100 µM | [5] > 100 µM | [7] > 100 µM | [8] > 100 µM | [9] > 100 µM | [10] > 100 µM | [11] > 100 µM | [12] > 100 µM | [13] > 100 µM | [14] > 100 µM

Cc1ccc(C(=O)O)cc1NC(=O)c1cc(/C=C/c2ccccc2)[nH]c(=S)n1
inactive: [1] > 100 µM | [2] > 100 µM | [3] > 100 µM | [15] > 100 µM | [4] > 100 µM | [5] > 100 µM | [6] > 69 µM | [7] > 100 µM | [9] > 100 µM | [10] > 37.8 µM | [11] > 100 µM | [12] > 100 µM | [13] > 100 µM | [14] > 100 µM

COc1cc2nncc(Sc3cnnc4ccccc34)c2cc1OC
inactive: [1] 21.9 µM | [2] 14.7 µM | [3] 11.8 µM | [4] 25.6 µM | [5] 17.4 µM | [6] 22.1 µM | [7] 18.9 µM | [8] 16.7 µM | [9] 37.1 µM | [11] 29 µM | [12] 31.1 µM | [13] 12.9 µM | [14] 7.52 µM
